Where “and” joins values, the source holds several entries; their conditions need not be identical. Equal values may be shown once.
How the values were obtained:
[1] = system: rat uterine decidualization; experiment: Rat decidualization assay; assay type: in vivo; conditions: for EC50 for uterine wet weight (decidual response), individual studies: ovariectomized female Sprague-Dawley rats, once daily for seven days
Procedure: b. Animals (RACUC Protocol #5002)
The animals are treated once daily for seven days.
Uteri are removed and trimmed of fat.
Body weight: Mean total animal body weight (default-kg)
Decidual response: [(D−C)/C]×100%

androgen receptor (AR) = molecular target: T1, androgen receptor (AR) (Mus musculus, UniProt P19091); experiment: Androgen receptor agonistic/antagonistic activity, PRE-tk-luciferase reporter in L929 cells; assay type: cell-based
T1 construct: L929 cells which express the AR but not the PR; endogenous in cells; host or cells: L929 cells infected with an adenovirus PRE-tk-luciferase reporter
T1 sequence (P19091 1-899): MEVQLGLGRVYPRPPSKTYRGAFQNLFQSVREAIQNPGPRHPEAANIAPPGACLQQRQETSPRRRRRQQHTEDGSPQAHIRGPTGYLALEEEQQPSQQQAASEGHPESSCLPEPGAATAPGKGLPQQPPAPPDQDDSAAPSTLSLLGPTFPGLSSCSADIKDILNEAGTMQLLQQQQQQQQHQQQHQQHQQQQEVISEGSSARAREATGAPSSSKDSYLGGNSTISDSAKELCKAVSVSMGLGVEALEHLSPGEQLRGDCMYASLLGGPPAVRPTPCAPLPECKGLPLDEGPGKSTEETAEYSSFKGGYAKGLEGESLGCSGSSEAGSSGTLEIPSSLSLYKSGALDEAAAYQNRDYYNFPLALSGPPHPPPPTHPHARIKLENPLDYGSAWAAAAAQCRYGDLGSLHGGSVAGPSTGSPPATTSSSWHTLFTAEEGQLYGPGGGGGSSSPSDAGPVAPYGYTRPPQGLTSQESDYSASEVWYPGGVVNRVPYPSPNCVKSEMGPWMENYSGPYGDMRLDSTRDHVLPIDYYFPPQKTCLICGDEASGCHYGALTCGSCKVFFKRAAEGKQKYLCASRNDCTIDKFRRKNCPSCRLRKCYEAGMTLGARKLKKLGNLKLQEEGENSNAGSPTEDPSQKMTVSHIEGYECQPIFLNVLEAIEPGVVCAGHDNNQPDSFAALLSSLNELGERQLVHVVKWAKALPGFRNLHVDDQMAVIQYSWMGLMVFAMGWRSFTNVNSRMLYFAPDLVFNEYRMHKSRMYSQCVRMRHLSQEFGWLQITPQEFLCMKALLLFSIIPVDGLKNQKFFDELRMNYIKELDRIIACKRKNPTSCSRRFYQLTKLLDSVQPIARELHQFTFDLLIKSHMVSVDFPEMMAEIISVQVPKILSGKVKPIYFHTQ
Procedure: The androgen receptor (AR) agonistic and antagonistic activity of the compositions of the invention in the L929 cells which express the AR but not the PR was evaluated as described in Zhang et al., Steroids, 65(10-11): 637-643 (October-November 2000).
Cells were plated in 96-well plates at 25,000 cells/well in DMEM (BioWhittaker) with 10% (v/v) fetal bovine serum (FBS). The next day, cells were infected with the adenovirus PRE-tk-luciferase reporter construct (2×10^9 pfu/ml particles) and kept in DMEM containing 10% charcoal stripped FBS for an additional 24 hours. […] To test the anti-androgenic activity, cells were co-treated with 3 nM DHT. Luciferase activity was measured 24 hours following the treatment.

acne vulgaris = experiment: Treatment of acne vulgaris in a human patient; assay type: in vivo; conditions: oral tablet about 20 mg daily
Procedure: A human patient having acne vulgaris is treated according to the present invention. Specifically, 5-(4,4-dimethyl-2-thioxo-1,4-dihydro-2H-3,1-benzoxazin-6-yl)-1-methyl-1H-pyrrole-2-carbonitrile is orally delivered to the patient daily. Delivery is in the form of a tablet formulated to contain about 20 mg of 5-(4,4-dimethyl-2-thioxo-1,4-dihydro-2H-3,1-benzoxazin-6-yl)-1-methyl-1H-pyrrole-2-carbonitrile.

eczema = experiment: Conditioning the skin of a human patient with severe eczema; assay type: in vivo; conditions: about 50 mg daily
Procedure: A human patient having a severe form of eczema is treated according to the present invention. Specifically, about 50 mg of 5-(4,4-dimethyl-2-thioxo-1,4-dihydro-2H-3,1-benzoxazin-6-yl)-1-methyl-1H-pyrrole-2-carbonitrile is delivered to the patient daily.

[2] = system: alkaline phosphatase activity in T47D cells; experiment: T47D cell alkaline phosphatase assay; assay type: cell-based; conditions: Homo sapiens, agonist mode, read-out: EC50 in the T47D alkaline phosphatase assay, test compounds
Procedure: 4. T47D Cell Alkaline Phosphatase Assay
The purpose of this assay is to identify progestins or antiprogestins by determining a compound's effect on alkaline phosphatase activity in T47D cells.
a. Culture Medium: DMEM:F12 (1:1) (GIBCO, BRL) supplemented with 5% (v/v) charcoal stripped fetal bovine serum (not heat-inactivated), 100 U/ml penicillin, 100 μg/ml streptomycin, and 2 mM GlutaMax (GIBCO, BRL).
b. Alkaline Phosphatase Assay Buffer:
I. 0.1 M Tris-HCl, pH 9.8, containing 0.2% Triton X-100
II. 0.1 M Tris-HCl, pH 9.8 containing 4 mM p-nitrophenyl phosphate (Sigma).
c. Cell Culture and Treatment:
Frozen T47D cells were thawed in a 37° C. water bath and diluted to 280,000 cells/ml in culture medium. To each well in a 96-well plate (Falcon, Becton Dickinson Labware), 180 μl of diluted cell suspension was added. Twenty μl of reference or test compounds diluted in the culture medium was then added to each well. […] The cells were incubated at 37° C. in a 5% CO2/humidified atmosphere for 24 hr.
d. Alkaline Phosphatase Enzyme Assay:
At the end of treatment, the medium was removed from the plate and […] of assay buffer I was added to each well. The plates were shaken in a titer plate shaker for 15 min. Then 150 μl of assay buffer II was added to each well.
e. Analysis of Results: Analysis of Dose-response Data
For reference and test compounds, a dose response curve is generated for dose (X-axis) vs. the rate of enzyme reaction (slope) (Y-axis). Square root-transformed data are used for analysis of variance and nonlinear dose response curve fitting for both agonist and antagonist modes. Huber weighting is used to downweight the effects of outliers. EC50 or IC50 values are calculated from the retransformed values.

T47D cells = experiment: T47D cell proliferation assay (BrdU incorporation); assay type: cell-based
Procedure: 3. T47D cell Proliferation Assay
The objective of this assay is the determination of progestational and antiprogestational potency by using a cell proliferation assay in T47D cells. A compound's effect on DNA synthesis in T47D cells is measured.
a. Growth Medium: DMEM:F12 (1:1) (GIBCO, BRL) supplemented with 10% (v/v) fetal bovine serum (not heat-inactivated), 100 U/ml penicillin, […], and 2 mM GlutaMax (GIBCO, BRL).
b. Treatment Medium: Minimum Essential Medium (MEM) (#51200-038GIBCO, BRL) phenol red-free supplemented with 0.5% charcoal stripped fetal bovine serum, 100 U/ml penicillin, […] streptomycin, and 2 mM GlutaMax (GIBCO, BRL).
Stock T47 D cells are maintained in growth medium. […]
At the end of BrdU labeling, the medium is removed and BrdU incorporation is measured using a cell proliferation ELISA kit (#RPN 250, Amersham Life Science) according to manufacturer's instructions. […] Then 25 μl of 1 M sulfuric acid is added to each well to stop color reaction and optical density is read in a plate reader at 450 nm within 5 min.
Square root-transformed data are used for analysis of variance and nonlinear dose response curve fitting for both agonist and antagonist modes. […] EC50 or IC50 values are calculated from the retransformed values. […]

SMILES | EC50 for uterine wet weight (decidual response), individual studies ([1]; s.c.) | EC50 [2] | further results
C#C[C@]1(O)CC[C@H]2[C@@H]3CCC4=CC(=O)CC[C@@H]4[C@H]3C(=C)C[C@@]21CC [3-Ketodesogestrel] | 0.10 mg/kg, s.c. and 0.06 mg/kg, s.c. and 0.11 mg/kg, s.c. | – | Estimated average EC50 for uterine weight (decidual response) ([1]; average of dose-response curves, ovariectomized rats, s.c.): 0.10 mg/kg, s.c.
Cn1c(C#N)ccc1-c1ccc2c(c1)C(C)(C)OC(=S)N2 [5-(4,4-dimethyl-2-thioxo-1,4-dihydro-2H-3,1-benzoxazin-6-yl)-1-methyl-1H-pyrrole-2-carbonitrile] | – | – | AR agonistic activity (androgen receptor (AR); at the maximum concentration tested (10 nM)): only marginal agonistic activity; AR antagonistic activity (androgen receptor (AR); nine point dose response, co-treated with 3 nM DHT): significant antagonistic activity; Acne vulgaris outcome (acne vulgaris; after about 24 weeks): improvement in the acne vulgaris is observed; Presence of lesions caused by acne vulgaris (acne vulgaris; forty-five to sixty days after the treatment): a decrease in the presence of lesions caused by acne vulgaris is noticed; Eczema outcome (eczema; after about 12 weeks): improvement in the eczema is observed; Dryness of the skin (eczema; thirty days after the treatment): a decrease in the dryness affected to the skin is noticed
Cn1c(C#N)ccc1-c1ccc2c(c1)C1(CCC1)OC(=S)N2 [Example 1, 1-Methyl-5-(2-thioxo-1,2-dihydrospiro[3,1-benzoxazine-4,1′-cyclobutan]-6-yl)-1H-pyrrole-2-carbonitrile] | – | 0.5 nM | –
CCC1(CC)OC(=S)Nc2ccc(-c3ccc(C#N)n3C)cc21 [Example 2, 5-(4,4-Diethyl-2-thioxo-1,4-dihydro-2H-3,1-benzoxazin-6-yl)-1-methyl-1H-pyrrole-2-carbonitrile] | – | 0.1 nM | –
CCC1(C)OC(=S)Nc2ccc(-c3ccc(C#N)n3C)cc21 (centres unmarked) [Example 3, 5-(4-ethyl-4-methyl-2-thioxo-1,4-dihydro-2H-3,1-benzoxazin-6-yl)-1-methyl-1H-pyrrole-2-carbonitrile] | – | 0.1 nM | –
Cn1c(C#N)ccc1-c1ccc2c(c1)C1(CCCCC1)OC(=S)N2 [Example 4, 1-Methyl-5-(2-thioxo-1,2-dihydrospiro[3,1-benzoxazine-4,1′-cyclohexan]-6-yl)-1H-pyrrole-2-carbonitrile] | – | 0.3 nM | –
Cn1c(C#N)ccc1-c1ccc2c(c1)C1(CCCC1)OC(=S)N2 [Example 5, 1-Methyl-5-(2-thioxo-1,2-dihydrospiro [3,1-benzoxazine-4,1′-cyclopentan]-6-yl)-1H-pyrrole-2-carbonitrile] | – | 0.5 nM | –
Cn1c(C#N)ccc1-c1ccc2c(c1)C(C(F)(F)F)(C(F)(F)F)OC(=S)N2 [Example 6, 1-Methyl-5-[2-thioxo-4,4-bis(trifluoromethyl)-1,4-dihydro-2H-3,1-benzoxazin-6-yl]-1H-pyrrole-2-carbonitrile] | – | < 10 nM | –
C#C[C@]1(O)CC[C@H]2[C@@H]3CCC4=CC(=O)CC[C@@H]4[C@H]3CC[C@@]21CC [Levonorgestrel] | 0.08 mg/kg, s.c. and 0.12 mg/kg, s.c. and 0.09 mg/kg, s.c. (2×) | – | –
CC(=O)O[C@]1(C(C)=O)CC[C@H]2[C@@H]3C[C@H](C)C4=CC(=O)CC[C@]4(C)[C@H]3CC[C@@]21C [MPA, medroxyprogesterone acetate] | 0.42 mg/kg, s.c. and 0.39 mg/kg, s.c. (2×) | – | –
CC(=O)[C@H]1CC[C@H]2[C@@H]3CCC4=CC(=O)CC[C@]4(C)[C@H]3CC[C@]12C [Progesterone] | 5.50 mg/kg, s.c. | – | –
CC#C[C@]1(O)CC[C@H]2[C@@H]3CCC4=CC(=O)CCC4=C3[C@@H](c3ccc(N(C)C)cc3)C[C@@]21C [RU486] | – | – | IC50 (T47D cells; read-out: IC50 (half-maximal decrease in trimegestone induced BrdU incorporation), antagonist mode, in the presence of 0.03 nM trimegestone): 0.016 nM and 0.018 nM; IC50 for uterine weight (decrease in EC50 progesterone induced decidual response) ([1]; ovariectomized rats, p.o., with EC50 dose of progesterone): 0.21 mg/kg, p.o. and 0.14 mg/kg, p.o.
C[C@H](O)C(=O)[C@@]1(C)CC[C@H]2[C@@H]3CCC4=CC(=O)CCC4=C3CC[C@@]21C [Trimegestone] | – | – | EC50 (T47D cells; agonist mode, individual studies, read-out: EC50 (half-maximal increase in BrdU incorporation)): 0.017 nM and 0.014 nM and 0.019 nM
